Key:
[1] = tested on: downy brome; assay: Test C pre-/postemergence test; format: in vivo, Bromus tectorum
Outline: (§1)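 Seeds were planted and treated preemergence with test chemical in a non-phytotoxic solvent mixture containing surfactant. Postemergence applications of the same formulation went onto plants 2 to 18 cm tall (1- to 4-leaf stage). A dash marks no test result.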

[2] = tested on: velvetleaf; assay: Test A pre-/postemergence greenhouse test; format: in vivo, Abutilon theophrasti; settings: for Velvetleaf plant response rating: 0 to 100 scale; for Plant response rating, Velvetleaf: 0 to 100 scale where 0 is no effect and 100 is complete control
Outline: (§2)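 Sowing in loam/sand; same-day pre (directed soil spray) and post (foliar, 1–2 leaf, 2–10 cm) treatment with surfactant-containing non-phytotoxic solvent formulation; ~10 days in greenhouse; eye-scored injury against untreated plants.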

[3] = tested on: giant foxtail; assay: Test C pre-/postemergence test; format: in vivo, Setaria faberii
Outline: as §1

[4] = tested on: catchweed bedstraw; assay: Test C pre-/postemergence test; format: in vivo, Galium aparine
Outline: as §1

[5] = tested on: wheat; assay: Test A pre-/postemergence greenhouse test; format: in vivo, Triticum aestivum; settings: for Wheat plant response rating: 0 to 100 scale; for Plant response rating, Wheat: 0 to 100 scale where 0 is no effect and 100 is complete control
Outline: as §2

[6] = tested on: woolly cupgrass; assay: Test C pre-/postemergence test; format: in vivo, Eriochloa villosa
Outline: as §1

[7] = tested on: rice; assay: Test C flooded paddy test; format: in vivo, Oryza sativa; settings: Flood
Outline: (§3)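 Under a constant 3 cm flood, test compounds went directly into the paddy water. Following 13 to 15 days of greenhouse growth, treated species and controls were compared by eye.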

[8] = tested on: yellow nutsedge; assay: Test C pre-/postemergence test; format: in vivo, Cyperus esculentus
Outline: as §1

[9] = tested on: eastern black nightshade; assay: Test C pre-/postemergence test; format: in vivo, Solanum ptycanthum
Outline: as §1

[10] = tested on: wheat; assay: Test C pre-/postemergence test; format: in vivo, Triticum aestivum
Outline: as §1

[11] = tested on: johnsongrass; assay: Test C pre-/postemergence test; format: in vivo, Sorghum halepense
Outline: as §1

[12] = tested on: duck salad; assay: Test C flooded paddy test; format: in vivo, Heteranthera limosa; settings: Flood
Outline: as §3

[13] = tested on: velvetleaf; assay: Test C pre-/postemergence test; format: in vivo, Abutilon theophrasti
Outline: as §1

[14] = tested on: redroot pigweed; assay: Test A pre-/postemergence greenhouse test; format: in vivo, Amaranthus retroflexus; settings: for Pigweed plant response rating: 0 to 100 scale
Outline: as §2

[15] = tested on: wild oat; assay: Test C pre-/postemergence test; format: in vivo, Avena fatua
Outline: as §1

[16] = tested on: morningglory; assay: Test C pre-/postemergence test; format: in vivo, Ipomoea coccinea
Outline: as §1

[17] = tested on: corn; assay: Test C pre-/postemergence test; format: in vivo, Zea mays
Outline: as §1

[18] = 31 g ai/ha, Preemergence, scale 0 to 100
[19] = 62 g ai/ha, preemergence, scale 0 (no effect) to 100 (complete control)
[20] = preemergence, 125 g ai/ha, scale 0 (no effect) to 100 (complete control)
[21] = Postemergence, 125 g ai/ha, 0 is no effect, 100 is complete control
[22] = Postemergence, 500 g ai/ha, 0 is no effect, 100 is complete control
[23] = Preemergence, 125 g ai/ha, 0 no effect, 100 complete control
[24] = 31 g ai/ha, scale 0 to 100 (0 no effect, 100 complete control)
[25] = 62 g ai/ha, scale 0 to 100, 0 no effect, 100 complete control, 13 to 15 days
[26] = 125 g ai/ha, scale 0 to 100, 0 no effect, 100 complete control, 13 to 15 days
[27] = 250 g ai/ha, scale 0 to 100 (0 no effect, 100 complete control)
[28] = 62 g ai/ha, Preemergence, scale 0 to 100
[29] = 125 g ai/ha, preemergence, scale 0 (no effect) to 100 (complete control)
[30] = Preemergence, 31 g ai/ha, scale 0 to 100 (0 no effect, 100 complete control)
[31] = preemergence, 250 g ai/ha, scale 0 (no effect) to 100 (complete control)
[32] = Preemergence, 500 g ai/ha, 0 no effect, 100 complete control
[33] = 62 g ai/ha, scale 0 to 100 (0 no effect, 100 complete control)
[34] = 250 g ai/ha, scale 0 to 100, 0 no effect, 100 complete control, 13 to 15 days

In the case of `Cn1nc(C(F)(F)F)c(C(Cl)S(=O)(=O)c2cccc[n+]2[O-])c1Cl` (centres unmarked) [Compound 12], the “Bromegrass, Downy plant response rating” value [1, 18] is reported as 0, the “Bromegrass, Downy plant response rating” value [1, 19] is reported as 0 and the “Plant response rating (0 to 100), Bromegrass, Downy” value ([1]; Preemergence, 250 g ai/ha) is reported as 0. For the same molecule, the “Bromegrass, Downy plant response rating” value [1, 20] was 0, the “Velvetleaf plant response rating” value [2, 21] was 0 and the “Velvetleaf plant response rating” value [2, 22] was 0. For the same molecule, the “Velvetleaf plant response rating” value [2, 23] was 0, the “Plant response rating, Velvetleaf” value ([2]; Preemergence, 500 g ai/ha) was 0 and the “Foxtail, Giant plant response rating” value [3, 18] was 80. The “Foxtail, Giant plant response rating” value [3, 19] was 80, the “Plant response rating (0 to 100), Foxtail, Giant” value ([3]; Preemergence, 250 g ai/ha) was 100 and the “Foxtail, Giant plant response rating” value [3, 20] was 80. The “Galium plant response rating” value [4, 18] was 80, the “Galium plant response rating” value [4, 19] was 100 and the “Plant response rating (0 to 100), Galium” value ([4]; Preemergence, 250 g ai/ha) was 100. For the same molecule, the “Galium plant response rating” value [4, 20] was 100, the “Wheat plant response rating” value [5, 21] was 0 and the “Wheat plant response rating” value [5, 22] was 40. The “Wheat plant response rating” value [5, 23] was 0, the “Plant response rating, Wheat” value ([5]; Preemergence, 500 g ai/ha) was 30 and the “Cupgrass, Woolly plant response rating” value [6, 18] was 80. The “Cupgrass, Woolly plant response rating” value [6, 19] was 100, the “Plant response rating (0 to 100), Cupgrass, Woolly” value ([6]; Preemergence, 250 g ai/ha) was 100 and the “Cupgrass, Woolly plant response rating” value [6, 20] was 100. The “Plant response rating, Rice” value [7, 24] was 60, the “Plant response rating, Rice” value [7, 25] was 60 and the “Plant response rating, Rice” value [7, 26] was 70. The “Plant response rating, Rice” value [7, 27] was 80, the “Nutsedge, Yellow plant response rating” value [8, 18] was 45 and the “Nutsedge, Yellow plant response rating” value [8, 19] was 70. For the same molecule, the “Plant response rating (0 to 100), Nutsedge, Yellow” value ([8]; Preemergence, 250 g ai/ha) was 100, the “Nutsedge, Yellow plant response rating” value [8, 20] was 90 and the “Nightshade plant response rating” value [9, 18] was 100. For the same molecule, the “Nightshade plant response rating” value [9, 19] was 100, the “Plant response rating (0 to 100), Nightshade” value ([9]; Preemergence, 250 g ai/ha) was 100 and the “Nightshade plant response rating” value [9, 20] was 100. For the same molecule, the “Wheat plant response rating” value [10, 19] was 0, the “Plant response rating (0 to 100), Wheat” value ([10]; Preemergence, 250 g ai/ha) was 20 and the “Wheat plant response rating” value [10, 20] was 0. For the same molecule, the “Johnsongrass plant response rating” value [11, 18] was 0, the “Johnsongrass plant response rating” value [11, 19] was 70 and the “Plant response rating (0 to 100), Johnsongrass” value ([11]; Preemergence, 250 g ai/ha) was 100. The “Johnsongrass plant response rating” value [11, 20] was 100, the “Plant response rating, Ducksalad” value [12, 24] was 40 and the “Plant response rating, Ducksalad” value [12, 25] was 95. The “Plant response rating, Ducksalad” value [12, 26] was 100, the “Plant response rating, Ducksalad” value [12, 27] was 100 and the “Velvetleaf plant response rating” value [13, 19] was 0. The “Plant response rating (0 to 100), Velvetleaf” value ([13]; Preemergence, 250 g ai/ha) was 0, the “Velvetleaf plant response rating” value [13, 20] was 0 and the “Pigweed plant response rating” value [14, 21] was 0. For the same molecule, the “Pigweed plant response rating” value [14, 22] was 0, the “Oat, Wild plant response rating” value [15, 18] was 0 and the “Oat, Wild plant response rating” value [15, 19] was 0. The “Plant response rating (0 to 100), Oat, Wild” value ([15]; Preemergence, 250 g ai/ha) was 0, the “Oat, Wild plant response rating” value [15, 20] was 0 and the “Morningglory plant response rating” value [16, 18] was 0. For the same molecule, the “Morningglory plant response rating” value [16, 19] was 0, the “Plant response rating (0 to 100), Morningglory” value ([16]; Preemergence, 250 g ai/ha) was 80 and the “Morningglory plant response rating” value [16, 20] was 5. The “Corn plant response rating” value [17, 18] was 0, the “Corn plant response rating” value [17, 19] was 0 and the “Plant response rating (0 to 100), Corn” value ([17]; Preemergence, 250 g ai/ha) was 45. The “Corn plant response rating” value [17, 20] was 0.

In the case of `CCc1cc[n+]([O-])c([S+]([O-])Cc2c(C(F)(F)F)nn(C)c2OC(F)F)c1` (centres unmarked) [Compound 101], the “Bromegrass, Downy plant response rating” value [1, 28] is reported as 45, the “Bromegrass, Downy plant response rating” value [1, 29] is reported as 90 and the “Plant response rating, Bromegrass, Downy” value [1, 30] is reported as 40. For the same molecule, the “Bromegrass, Downy plant response rating” value [1, 31] was 100, the “Plant response rating, Velvetleaf” value ([2]; Postemergence, 125 g ai/ha) was 70 and the “Velvetleaf plant response rating” value [2, 22] was 90. The “Velvetleaf plant response rating” value [2, 23] was 80, the “Velvetleaf plant response rating” value [2, 32] was 100 and the “Foxtail, Giant plant response rating” value [3, 28] was 80. The “Foxtail, Giant plant response rating” value [3, 29] was 95, the “Plant response rating, Foxtail, Giant” value [3, 30] was 70 and the “Foxtail, Giant plant response rating” value [3, 31] was 98. For the same molecule, the “Galium plant response rating” value [4, 28] was 50, the “Galium plant response rating” value [4, 29] was 98 and the “Plant response rating, Galium” value [4, 30] was 0. For the same molecule, the “Galium plant response rating” value [4, 31] was 100, the “Plant response rating, Wheat” value ([5]; Postemergence, 125 g ai/ha) was 50 and the “Wheat plant response rating” value [5, 22] was 60. The “Wheat plant response rating” value [5, 23] was 70, the “Wheat plant response rating” value [5, 32] was 100 and the “Cupgrass, Woolly plant response rating” value [6, 28] was 80. For the same molecule, the “Cupgrass, Woolly plant response rating” value [6, 29] was 85, the “Plant response rating, Cupgrass, Woolly” value [6, 30] was 40 and the “Cupgrass, Woolly plant response rating” value [6, 31] was 95. The “Plant response rating, Rice” value [7, 33] was 0, the “Plant response rating, Rice” value [7, 34] was 75 and the “Nutsedge, Yellow plant response rating” value [8, 28] was 20. The “Nutsedge, Yellow plant response rating” value [8, 29] was 60, the “Plant response rating, Nutsedge, Yellow” value [8, 30] was 0 and the “Nutsedge, Yellow plant response rating” value [8, 31] was 100. For the same molecule, the “Nightshade plant response rating” value [9, 28] was 80, the “Nightshade plant response rating” value [9, 29] was 95 and the “Plant response rating, Nightshade” value [9, 30] was 10. The “Nightshade plant response rating” value [9, 31] was 100, the “Wheat plant response rating” value [10, 28] was 65 and the “Wheat plant response rating” value [10, 29] was 85. For the same molecule, the “Plant response rating, Wheat” value [10, 30] was 50, the “Wheat plant response rating” value [10, 31] was 95 and the “Johnsongrass plant response rating” value [11, 28] was 85. For the same molecule, the “Johnsongrass plant response rating” value [11, 29] was 95, the “Plant response rating, Johnsongrass” value [11, 30] was 70 and the “Johnsongrass plant response rating” value [11, 31] was 100. For the same molecule, the “Plant response rating, Ducksalad” value [12, 33] was 0, the “Plant response rating, Ducksalad” value [12, 34] was 80 and the “Velvetleaf plant response rating” value [13, 28] was 30. The “Velvetleaf plant response rating” value [13, 29] was 40, the “Plant response rating, Velvetleaf” value [13, 30] was 0 and the “Velvetleaf plant response rating” value [13, 31] was 95. The “Plant response rating, Pigweed” value ([14]; Postemergence, 125 g ai/ha, 0 to 100 scale where 0 is no effect and 100 is complete control) was 70, the “Pigweed plant response rating” value [14, 22] was 90 and the “Pigweed plant response rating” value [14, 23] was 100. For the same molecule, the “Pigweed plant response rating” value [14, 32] was 100, the “Oat, Wild plant response rating” value [15, 28] was 90 and the “Oat, Wild plant response rating” value [15, 29] was 90. For the same molecule, the “Plant response rating, Oat, Wild” value [15, 30] was 50, the “Oat, Wild plant response rating” value [15, 31] was 98 and the “Morningglory plant response rating” value [16, 28] was 60. The “Morningglory plant response rating” value [16, 29] was 100, the “Plant response rating, Morningglory” value [16, 30] was 20 and the “Morningglory plant response rating” value [16, 31] was 100. For the same molecule, the “Corn plant response rating” value [17, 28] was 75, the “Corn plant response rating” value [17, 29] was 90 and the “Plant response rating, Corn” value [17, 30] was 40. For the same molecule, the “Corn plant response rating” value [17, 31] was 98.
